Type in all cases: cell-based
The target of one assay is GR (Homo sapiens (Human), UniProt P04150). The experiment in a line: GR antagonist assay (GRE-LUC luciferase, transfected COS-7 cells, with 0.1 nM dexamethasone). To be noted: for IC50 / GR antagonist assay, % of vehicle: in the presence of 0.1 nM dexamethasone; for inhibition at 10 µM: COS-7, read-out: GR Antagonism % inhibition at 10 μM; for GR antagonist assay, % of vehicle: 10 μM. The procedure: COS-7 cells (ATCC, Manassas, Va.) were plated in 24 well plates in DME+5% csFBS without phenol red at 70,000 cells/well. Once the cells attached to the plates (typically after overnight incubation after plating), they were transfected in OPTIMEM medium (Life Technologies) using lipofectamine reagent (Life Technologies) with 0.25 μg GRE-LUC, 25 ng pCR3.1 GR, and 10 ng CMV-renilla LUC per well. Twenty-four hours after transfection, the cells were fed with DME+5% csFBS without phenol red (Fisher Scientific, Waltham, Mass.) and treated with the test compounds (1 pM to 10 μM dose range) in the presence of 0.1 nM dexamethasone (Sigma, St. Louis, Mo.). Sixteen to twenty-four hours after treatment, a luciferase assay was performed using the Dual Luciferase assay kit (Promega, Madison, Wis.). Firefly luciferase values were normalized to Renilla luciferase numbers.

In another assay the target is Human AR (Homo sapiens (Human), UniProt P10275). Nature of the assay: AR antagonist assay (GRE-LUC luciferase, transfected HEK-293 cells, with 0.1 nM R1881). To be noted: for IC50: with 0.1 nM R1881; for inhibition at 1 µM: HEK293. The procedure:
Human AR cDNA cloned into pCMV vector, GRE-LUC, and CMV-renilla-LUC were used to transfect cells. HEK-293 cells (ATCC) were plated at 120,000 cells per well of a 24 well plate in DME+5% csFBS (Fisher Scientific, Waltham, Mass.). The cells were transfected using Lipofectamine (Life Technologies, Carlsbad, Calif.) with 0.25 μg GRE-LUC, 0.010 μg CMV-LUC (renilla luciferase) and 25 ng of the AR. […] Luciferase assay was performed 48 hrs after transfection. Firefly luciferase assay values were normalized to renilla luciferase values and were graphed using graphpad prism software (La Jolla, Calif.). […] The IC50 or EC50 values were determined using non-linear regression and […] logistics fitting.

In a further assay the test system is LNCaP-abl cells. The experiment in a line: Cell proliferation assay, LNCaP-abl (CellTiter-Glo). To be noted: 72 h, 3 days; for activity at 3 µM: read-out: cell proliferation, % of vehicle at 3 μM; for activity at 10 µM: read-out: cell proliferation, % of vehicle at 10 μM. The procedure:
LNCaP-abl (3,000 cells/well, received from Dr. Myles Brown, Dana Farber Cancer Institute), 22RV1 (1,000 cells/well), LNCaP (5,000 cells/well), or COS (3,000 cells/well) cells were plated in 96 well plates in 50 μl RPMI+10% FBS (Fisher Scientific, Waltham, Mass.). LNCaP, COS, and 22RV1 cells were obtained from ATCC. Cells were treated in RPMI+10% FBS with test articles, ranging from 1 nM to 10 μM. Three days later, viable cells (LNCaP-abl, 22RV1, and COS) were measured by CellTiter-Glo assay (Promega, Madison, Wis.). For LNCaP cells, medium containing test article was changed after 3 days of treatment, and after an additional 3 days of culture, viable cells were measured by CellTiter-Glo assay.
The LNCaP cell line is androgen responsive with AR and PSA expression. It contains a T877A mutation in the AR. The 22RV1 cell line is positive for AR and PSA with additional AR splice variants and is insensitive to androgen for cell proliferation. The LNCaP-abl cell line expresses both AR and GR but is insensitive to androgen for cell proliferation. COS-7 is used as an AR negative cell line in this experiment.
A general note: ATP-based viability assays read luminescence as a measure of living cells.

The source of these data is patent US11292782B2, “Diarylhydantoin compounds and methods of use thereof” (Nuvation Bio Inc., priority 2018, dated 2022).

SMILES strings stand for the structures. Where two headings read alike, the source gives them in different places.

Human AR, sequence (P10275 whole entry): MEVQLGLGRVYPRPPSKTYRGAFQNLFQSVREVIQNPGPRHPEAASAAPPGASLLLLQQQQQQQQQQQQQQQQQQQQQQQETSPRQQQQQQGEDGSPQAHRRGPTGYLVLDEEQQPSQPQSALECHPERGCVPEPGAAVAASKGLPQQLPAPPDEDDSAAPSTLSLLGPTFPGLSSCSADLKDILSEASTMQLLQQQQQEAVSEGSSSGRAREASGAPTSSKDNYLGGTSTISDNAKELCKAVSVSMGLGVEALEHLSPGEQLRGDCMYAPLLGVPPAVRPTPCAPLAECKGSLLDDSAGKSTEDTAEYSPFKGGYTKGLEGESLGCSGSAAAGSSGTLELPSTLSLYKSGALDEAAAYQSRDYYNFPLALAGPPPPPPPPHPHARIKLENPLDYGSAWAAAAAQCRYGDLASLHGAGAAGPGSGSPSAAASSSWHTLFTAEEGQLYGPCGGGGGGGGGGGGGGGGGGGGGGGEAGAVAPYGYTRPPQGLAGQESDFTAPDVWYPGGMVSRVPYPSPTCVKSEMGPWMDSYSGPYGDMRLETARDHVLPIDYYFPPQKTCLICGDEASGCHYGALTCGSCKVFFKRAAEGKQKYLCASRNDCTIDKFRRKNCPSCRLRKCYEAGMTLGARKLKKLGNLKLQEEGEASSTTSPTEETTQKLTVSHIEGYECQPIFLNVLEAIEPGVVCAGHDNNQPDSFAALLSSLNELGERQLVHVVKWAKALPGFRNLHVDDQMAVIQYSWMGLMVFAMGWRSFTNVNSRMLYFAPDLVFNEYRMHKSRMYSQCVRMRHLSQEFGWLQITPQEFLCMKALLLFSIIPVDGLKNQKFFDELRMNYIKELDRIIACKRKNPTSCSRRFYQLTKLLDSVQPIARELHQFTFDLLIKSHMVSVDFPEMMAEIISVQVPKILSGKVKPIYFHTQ
GR, sequence (P04150 whole entry): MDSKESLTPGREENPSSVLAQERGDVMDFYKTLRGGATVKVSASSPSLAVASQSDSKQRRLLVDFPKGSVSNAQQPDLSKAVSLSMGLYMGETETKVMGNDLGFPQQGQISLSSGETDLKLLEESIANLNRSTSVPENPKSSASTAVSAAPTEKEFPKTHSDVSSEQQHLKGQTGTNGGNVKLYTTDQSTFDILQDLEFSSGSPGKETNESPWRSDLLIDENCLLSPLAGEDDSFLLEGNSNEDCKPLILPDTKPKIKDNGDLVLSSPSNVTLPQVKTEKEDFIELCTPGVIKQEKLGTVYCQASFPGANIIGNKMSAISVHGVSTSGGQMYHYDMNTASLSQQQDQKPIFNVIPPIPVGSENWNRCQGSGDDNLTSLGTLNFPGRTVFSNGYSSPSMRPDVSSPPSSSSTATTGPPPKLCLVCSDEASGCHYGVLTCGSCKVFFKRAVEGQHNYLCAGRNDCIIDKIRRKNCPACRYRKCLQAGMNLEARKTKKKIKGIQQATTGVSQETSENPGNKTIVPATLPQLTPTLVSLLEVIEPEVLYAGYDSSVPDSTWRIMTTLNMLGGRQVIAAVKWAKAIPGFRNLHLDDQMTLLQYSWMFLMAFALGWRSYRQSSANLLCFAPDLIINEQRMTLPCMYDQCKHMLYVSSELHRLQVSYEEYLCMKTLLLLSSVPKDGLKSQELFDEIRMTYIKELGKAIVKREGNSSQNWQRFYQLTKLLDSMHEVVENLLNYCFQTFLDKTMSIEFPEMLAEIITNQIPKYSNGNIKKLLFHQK

`Cc1ncsc1C(=O)NCc1ccc(N2C(=S)N(c3ccc(C#N)c(C(F)(F)F)c3)C(=O)C2(C)C)cc1` [Compound 39]: the IC50 (in general, the concentration needed to halve the response being measured) at GR was greater than 10000 nM. Also, the IC50 against Human AR was determined as 200 nM. Also, in the assay on LNCaP-abl cells, the activity at 3 µM was found to be 90% and the activity at 10 µM was 87%.

`Cn1nccc1C(=O)NCc1ccc(N2C(=S)N(c3ccc(C#N)c(C(F)(F)F)c3)C(=O)C2(C)C)cc1F` [Compound 42]: the IC50 at GR is greater than 10000 nM. For the same compound, on Human AR, the inhibition (usually the change of the read-out against control, counted positive when it falls) at 1 µM was 95% and the midpoint of inhibition, the IC50, lay at 77 nM. Also, in the assay with LNCaP-abl cells, the activity at 3 µM worked out at 98% and the activity at 10 µM stood at 60%.

As for `CC1(C)C(=O)N(c2ccc(C#N)c(C(F)(F)F)c2)C(=O)N1c1ccc(CNC(=O)c2ccccn2)c(F)c1` [Compound 23], the IC50 on GR was greater than 10000 nM. In addition, the IC50 at Human AR stood at 180 nM. Also, in the assay on LNCaP-abl cells, the activity at 3 µM came to 84% and the activity at 10 µM was 43%.

Consider `Cc1ccccc1C(=O)NCc1ccc(N2C(=S)N(c3ccc(C#N)c(F)c3)C(=O)C2(C)C)cc1F` [Compound 71], for which the IC50 at GR was greater than 10000 nM. This compound also displayed a half-maximal inhibitory concentration (IC50) against Human AR of 589 nM. Also, in the assay on LNCaP-abl cells, the activity at 3 µM amounted to 86% and the activity at 10 µM was 81%.

Consider `Cc1ncsc1C(=O)NCc1ncc(N2C(=S)N(c3ccc(C#N)c(C(F)(F)F)c3)C(=O)C2(C)C)cc1F` [Compound 55], for which, on GR, the inhibition at 10 µM worked out at 58%.

Turning to `CC1(C)C(=O)N(c2ccc(C#N)c(C(F)(F)F)c2)C(=S)N1c1ccc(CNC(=O)c2cocn2)c(F)c1` [Compound 54], at GR, the inhibition at 10 µM came to 56%.

As for `Cc1ncsc1C(=O)NCc1ccc(N2C(=S)N(c3cnc(C#N)c(C(F)(F)F)c3)C(=O)C2(C)C)cc1F` [Compound 51], the inhibition at 10 µM on GR (10 μM single concentration) was determined as 35%. Moreover, at Human AR, at 1 µM the inhibition was 93%.

In the case of `CC1(C)C(=O)N(c2cnc(C#N)c(C(F)(F)F)c2)C(=S)N1c1ccc(CNC(=O)c2cncs2)c(Cl)c1` [Compound 36], the 50% inhibitory concentration (IC50) at GR is greater than 10000 nM. The IC50 against Human AR amounted to 580 nM. In addition, in the assay with LNCaP-abl cells, the activity at 3 µM came out at 82% and the activity at 10 µM is 59%.

Consider `CC1(C)C(=O)N(c2ccc(C#N)c(C(F)(F)F)c2)C(=S)N1c1ccc(CNC(=O)c2cnco2)c(F)c1` [Compound 60], for which the IC50 on GR was greater than 10000 nM. This compound also gave an IC50 at Human AR of 115 nM. For the same compound, in the assay on LNCaP-abl cells, the activity at 3 µM came out at 75% and the activity at 10 µM is 96%.

As for `CC1(C)C(=O)N(c2ccc(C#N)c(C(F)(F)F)c2)C(=S)N1c1cnc(CNC(=O)c2ccccn2)c(F)c1` [Compound 53], at GR, the inhibition at 10 µM turned out to be 66%.

Turning to `CC1(C)C(=O)N(c2ccc(C#N)c(C(F)(F)F)c2)C(=S)N1c1ccc(CNC(=O)c2ccc3cn[nH]c3c2)c(F)c1` [Compound 80], at GR, the inhibition at 10 µM is 38%.

On to `Cn1nccc1C(=O)NCc1ccc(N2C(=S)N(c3ccc(C#N)c(C(F)(F)F)c3)C(=O)C23CCC3)cc1F` [Compound 73], for which the 50% inhibitory concentration (IC50) amounted to 2960 nM on GR and 92 nM on Human AR. The activity at 3 µM in the assay on LNCaP-abl cells came out at 79%. Further, the activity at 10 µM in the assay on LNCaP-abl cells is 66%.

In the case of `CC1(C)C(=O)N(c2ccc(C#N)c(C(F)(F)F)c2)C(=O)N1c1ccc(CNC(=O)c2ncccn2)cc1` [Compound 33], the inhibition at 10 µM at GR was 3%. Moreover, the IC50 at Human AR came to 304 nM.

`CC1(C)C(=O)N(c2ccc(C#N)c(C(F)(F)F)c2)C(=O)N1c1ccc(CNC(=O)c2cncs2)cc1` [Compound 27]: the IC50 at GR was greater than 10000 nM; against Human AR, 496 nM.

Consider `CC1(C)C(=O)N(c2cnc(C#N)c(C(F)(F)F)c2)C(=S)N1c1ccc(CNC(=O)c2ncccn2)c(Cl)c1` [Compound 30], for which the IC50 on GR was greater than 10000 nM; against Human AR it was 73 nM.

Take `CC1(C)C(=O)N(c2ccc(C#N)c(F)c2)C(=S)N1c1ccc(CN2Cc3ncccc3C2=O)c(F)c1` [Compound 78, 2-fluoro-4-(3-(3-fluoro-4-((5-oxo-5,7-dihydro-6H-pyrrolo[3,4-b]pyridin-6-yl)methyl)phenyl)-4,4-dimethyl-5-oxo-2-thioxoimidazolidin-1-yl)benzonitrile]: the inhibition at 10 µM at GR (10 μM single concentration) is 0%.

On to `CC1(C)C(=O)N(c2ccc(C#N)c(C(F)(F)F)c2)C(=S)N1c1ccc(CNC(=O)c2ncccn2)c(Cl)c1` [Compound 31], for which the values for the IC50 at GR and on Human AR were greater than 10000 nM and 62 nM, respectively.

For the compound `CC1(C(=O)NCc2ccc(N3C(=S)N(c4ccc(C#N)c(C(F)(F)F)c4)C(=O)C3(C)C)cc2F)CC1` [Compound 52], at GR, the inhibition at 10 µM turned out to be 56%.

Regarding `CC1CC1C(=O)NCc1ccc(N2C(=S)N(c3ccc(C#N)c(C(F)(F)F)c3)C(=O)C2(C)C)cc1F` (stereo not shown) [Compound 41], at 1 µM the inhibition against Human AR was 88%.

`CC1(C)C(=O)N(c2ccc(C#N)c(C(F)(F)F)c2)C(=S)N1c1ccc(CN2Cc3ncccc3C2=O)c(F)c1` [Compound 66, 4-(3-(3-fluoro-4-((5-oxo-5H-pyrrolo[3,4-b]pyridin-6(7H)-yl)methyl)phenyl)-4,4-dimethyl-5-oxo-2-thioxoimidazolidin-1-yl)-2-(trifluoromethyl)benzonitrile]: the “GR antagonist assay, % of vehicle” value on GR worked out at 31%. On Human AR, the inhibition at 1 µM stood at 90%.

As for `CC1(C)C(=O)N(c2ccc(C#N)c(C(F)(F)F)c2)C(=S)N1c1ccc(CNC(=O)c2ncc[nH]2)c(F)c1` [Compound 3], the IC50 on GR is greater than 10000 nM; against Human AR, 180 nM.

For `CC1(C)C(=O)N(c2ccc(C#N)c(C(F)(F)F)c2)C(=S)N1c1ccc(CNC(=O)c2ccccc2F)c(F)c1` [Compound 47], the inhibition at 10 µM at GR worked out at 46%.

As for `CC1(C)C(=O)N(c2ccc(C#N)c(C(F)(F)F)c2)C(=O)N1c1ccc(CNC(=O)C2CC2)c(F)c1` [Compound 24], the half-inhibitory concentration (IC50) at GR is greater than 10000 nM; against Human AR, 1090 nM.

`CC1(C)C(=O)N(c2ccc(C#N)c(C(F)(F)F)c2)C(=S)N1c1ccc(CNC(=O)c2ccc3[nH]ncc3c2)c(F)c1` [Compound 79]: the inhibition at 10 µM at GR amounted to 75%.

As to `Cc1ccccc1C(=O)NCc1ccc(N2C(=S)N(c3ccc(C#N)c(C(F)(F)F)c3)C(=O)C2(C)C)cc1F` [Compound 43], the inhibition at 10 µM at GR is 0%. Also, 1 µM produced 94% inhibition on Human AR.

For the compound `Cc1nnc(C(=O)NCc2ccc(N3C(=S)N(c4ccc(C#N)c(C(F)(F)F)c4)C(=O)C3(C)C)cc2F)o1` [Compound 62], the inhibition at 10 µM at GR was determined as 0%.

In the case of `CC(C)C(=O)NCc1ccc(N2C(=O)N(c3ccc(C#N)c(C(F)(F)F)c3)C(=O)C2(C)C)cc1F` [Compound 20], the IC50 is greater than 10000 nM at GR and 1870 nM against Human AR.

On to `Cn1nccc1C(=O)NCc1ccc(N2C(=S)N(c3ccc(C#N)c(F)c3)C(=O)C2(C)C)cc1F` [Compound 74], for which the inhibition at 10 µM at GR (10 μM single concentration) came to 17%.

Take `Cc1cccnc1C(=O)NCc1ccc(N2C(=S)N(c3ccc(C#N)c(C(F)(F)F)c3)C(=O)C2(C)C)cc1F` [Compound 40]: the inhibition at 10 µM at GR stood at 48%.

`CC1(C)C(=O)N(c2ccc(C#N)c(C(F)(F)F)c2)C(=S)N1c1ccc(CNS(=O)(=O)c2ccccn2)c(F)c1` [Compound 75]: the inhibition at 10 µM on GR worked out at 40%.

Consider `CN1CC(C(=O)NCc2ccc(N3C(=S)N(c4ccc(C#N)c(C(F)(F)F)c4)C(=O)C3(C)C)cc2F)C1` [Compound 63], for which the inhibition at 10 µM at GR was found to be 0%.

As to `CC1(C)C(=O)N(c2ccc(C#N)c(C(F)(F)F)c2)C(=S)N1c1ccc(CNC(=O)c2ccncn2)c(F)c1` [Compound 14], the inhibition at 10 µM at GR was found to be 22%.

As to `CC#C[C@]1(O)CC[C@H]2[C@@H]3CCC4=CC(=O)CCC4=C3[C@@H](c3ccc(N(C)C)cc3)C[C@@]21C` [RU486, reference compound], the “GR antagonist assay, % of vehicle” value at GR was 13%. Also, the inhibition at 1 µM on GR (COS-7, read-out: GR antagonism inhibition at 1 μM) was determined as 72.8%.

On to `CC1(C)C(=O)N(c2cnc(C#N)c(C(F)(F)F)c2)C(=S)N1c1ccc(CNC(=O)c2ccccn2)c(F)c1` [Compound 50], for which, on GR (10 μM single concentration), the inhibition at 10 µM was 69%.
